Where two headings read alike, the source gives them in different places.
Assays:
[1] = tested on: T.b. brucei Squib-427 strain; experiment: Antitrypanosomal phenotypic cellular assay (resazurin); type: cell-based; settings: Trypanosoma brucei; in vitro, 72 h, mean ± S.E.M.
Experimental: (§1) The phenotypic cellular assays were conducted as previously reported by Blaazer et al. (Blaazer et al., [2018]).
For the antitrypanosomal assay, T.b. brucei Squib-427 strain (suramin-sensitive) was cultured at 37°C and 5% CO2 in HMI-9 medium supplemented with 10% fetal calf serum (FCS). Approximately 1.5 × 10^4 trypomastigotes were added to each well and parasite growth was assessed after 72 h at 37°C by adding resazurin. Viability was assessed fluorimetrically 24 h after addition of resazurin. Fluorescence was measured (excitation 550 nm, emission 590 nm) and the results were expressed as percentage reduction in viability compared to control.

[2] = Cellular cytotoxicity assay (resazurin); type: cell-based; settings: human
Experimental: as §1
For the cellular cytotoxicity assay, MRC-5 SV2 cells, originally from a human diploid lung cell line, were cultivated in MEM supplemented with L-glutamine (20 mM), 16.5 mM sodium hydrogen carbonate and 5% FCS. For the assay, 10^4 MRC-5 cells/well were seeded onto the test plates containing the pre-diluted sample and incubated at 37°C and 5% CO2 for 72 h. Cell viability was assessed fluorimetrically 4 h after the addition of resazurin. Fluorescence was measured (excitation 550 nm, emission 590 nm) and the results were expressed as percentage reduction in cell viability compared to controls.

[3] = target: T1, TbrPDEB1 (Trypanosoma brucei, UniProt Q8WQX9); experiment: TbrPDEB1 catalytic domain phosphodiesterase activity assay (PDELight HTS cAMP kit); type: biochemical; settings: for Ki: full dose-response, mean ± S.E.M.; for inhibition at 10 µM / TbrPDEB1 (% inh.): single point assay at 10 μM inhibitor; for inhibition at 10 µM: read-out: TbrPDEB1 (% inh.)
T1 construct: The TbrPDEB1 catalytic domain phosphodiesterase activity assays were conducted based on a method reported by Sijm et al
T1 sequence (Q8WQX9 565-918 limits assumed): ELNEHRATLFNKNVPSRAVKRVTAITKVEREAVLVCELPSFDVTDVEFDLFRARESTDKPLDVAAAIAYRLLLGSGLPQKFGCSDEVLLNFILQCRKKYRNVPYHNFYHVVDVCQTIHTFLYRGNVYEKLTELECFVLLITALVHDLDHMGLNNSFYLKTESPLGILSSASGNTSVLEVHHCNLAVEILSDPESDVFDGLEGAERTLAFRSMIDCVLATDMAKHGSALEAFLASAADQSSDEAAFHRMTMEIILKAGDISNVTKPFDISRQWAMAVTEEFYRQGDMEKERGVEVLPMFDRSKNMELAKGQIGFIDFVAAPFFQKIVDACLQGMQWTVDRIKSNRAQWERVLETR
Experimental: The TbrPDEB1 catalytic domain phosphodiesterase activity assays were conducted based on a method reported by Sijm et al. ([2019]) with minor adaptations (Sijm et al., [2019]). The PDELight™ HTS cAMP phosphodiesterase Kit (Lonza, Walkersville, USA) was performed at 25°C in non-binding, low volume 384-well plates (Corning, Kennebunk, ME, USA). […] Single concentration measurements were made at 10 μM inhibitor concentration (triplo measurements/assay, n = 2). Dose-response curves were made in the range 100 μM−10 pM (triplo measurements/assay, n = 3). Compounds were diluted in DMSO (final in-test concentration 1%). Inhibitor dilutions (2.5 μL) were transferred to the 384-well plates, 2.5 μL of PDE in stimulation buffer was added and mixed, 5 μL of cAMP (at 2 × Km up to 20 μM) added and the assay mixture was incubated for 20 min at 300 rpm. […] Then, 5 μL of Lonza Detection reagent (diluted to 80% with reaction buffer) was added and the reaction incubated for 10 min at 300 rpm. Luminescence was read with a Victor3 luminometer using a 0.1 s/well program.
The Ki values of the inhibitors analyzed are represented as the mean of at least three independent experiments with the associated standard error of the mean (S.E.M.).

[4] = tested on: TbrPDEB2; set-up: method as in earlier work; settings: ref De Koning et al., 2012, Orrling et al., Veerman et al., 2016; cited from earlier work
[5] = tested on: T.b. brucei Squib-427 strain; set-up: method as in Blaazer et al. (2018); settings: in vitro; ref Blaazer et al. (2018); cited from earlier work
[6] = target: T1, TbrPDEB1; settings: ref Blaazer et al. (2018); cited from earlier work
[7] = tested on: hPDE4B1; set-up: method as in Blaazer et al. (2018); settings: ref Blaazer et al. (2018), cited from earlier work
[8] = tested on: MRC-5 SV2 cells; set-up: method as in Blaazer et al. (2018); settings: ref Blaazer et al. (2018); cited from earlier work

Ki [3] [µM]	inhibition at 10 µM [3] [%]	SMILES	IC50 [1] [µM]	CC50 at 72 h [2] [µM]	other results
0.8 ± 0.2	≥ 50	COC(=O)c1ccc(Oc2cc(C3=NN(C(C)C)C(=O)[C@@H]4CC=CC[C@H]34)ccc2OC)nc1 (relative stereo) [3c, Methyl 6-(5-(cis-3-isopropyl-4-oxo-3,4,4a,5,8,8a-hexahydrophthalazin-1-yl)-2-methoxyphenoxy)nicotinate]	7.9 ± 8	> 64	–
0.8 ± 0.2	≥ 50	COc1ccc(C2=NN(C(C)C)C(=O)[C@@H]3CC=CC[C@H]23)cc1Oc1cccc(C(N)=O)n1 (relative stereo) [3l, 6-(5-(cis-3-Isopropyl-4-oxo-3,4,4a,5,8,8a-hexahydrophthalazin-1-yl)-2-methoxyphenoxy)picolinamide]	16 ± 10	> 64	–
1.3 ± 0.3	> 50	CCCCNC(=O)c1cccc(Oc2cc(C3=NN(C(C)C)C(=O)[C@@H]4CC=CC[C@H]34)ccc2OC)n1 (relative stereo) [3s, N-Butyl-6-(5-(cis-3-isopropyl-4-oxo-3,4,4a,5,8,8a-hexahydrophthalazin-1-yl)-2-methoxyphenoxy)picolinamide]	> 64	> 64	–
1 ± 0.2	> 50	COc1ccc(C2=NN(C(C)C)C(=O)[C@@H]3CC=CC[C@H]23)cc1Oc1cccc(C(=O)NCc2ccco2)n1 (relative stereo) [3w, N-(Furan-2-ylmethyl)-6-(5-(cis-3-isopropyl-4-oxo-3,4,4a,5,8,8a-hexahydrophthalazin-1-yl)-2-methoxyphenoxy)picolinamide]	25 ± 20	> 64	–

Further lines, the molecule ahead of its results:

SMILES	Ki [3] [µM]	inhibition at 10 µM [3] [%]	IC50 [1] [µM]	CC50 at 72 h [2] [µM]	other results
COC(=O)c1cnc(Oc2cc(C3=NN(C(C)C)C(=O)[C@@H]4CC=CC[C@H]34)ccc2OC)cn1 (relative stereo) [2d, Methyl 5-(5-(cis-3-isopropyl-4-oxo-3,4,4a,5,8,8a-hexahydrophthalazin-1-yl)-2-methoxyphenoxy)pyrazine-2-carboxylate]	0.6 ± 0.2	~50	16 ± 10	> 64	–
COc1ccc(C2=NN(C(C)C)C(=O)[C@H]3CC=CC[C@@H]23)cc1Oc1ccc(Cn2ccnc2)cn1 (relative stereo) [2h, cis-4-(3-((5-((1H-Imidazol-1-yl)methyl)pyridin-2-yl)oxy)-4-methoxyphenyl)-2-isopropyl-4a,5,8,8a-tetrahydrophthalazin-1(2H)-one]	1.3 ± 0.2	~50	7.9 ± 8	31 ± 8	–
COc1ccc(C2=NN(C(C)C)C(=O)[C@@H]3CC=CC[C@H]23)cc1Oc1cc(C(=O)NCc2ccco2)ccn1 (relative stereo) [3u, N-(Furan-2-ylmethyl)-2-(5-(cis-3-isopropyl-4-oxo-3,4,4a,5,8,8a-hexahydrophthalazin-1-yl)-2-methoxyphenoxy)isonicotinamide]	–	–	–	–	TbrPDEB1 (% inh.) [3]: No inhibition
COc1ccc(C2=NN(C(C)C)C(=O)[C@@H]3CC=CC[C@H]23)cc1Oc1ccc(C(=O)NCc2ccco2)cn1 (relative stereo) [3v, N-(Furan-2-ylmethyl)-6-(5-(cis-3-isopropyl-4-oxo-3,4,4a,5,8,8a-hexahydrophthalazin-1-yl)-2-methoxyphenoxy)nicotinamide]	–	–	–	–	TbrPDEB1 (% inh.) [3]: No inhibition
COc1ccc(C2=NN(C3CCCCCC3)C(=O)[C@@H]3CC=CC[C@H]23)cc1OCCCCOc1ccc(-c2nn[nH]n2)cc1 [NPD-001]	–	–	–	–	IC50 [4]: 0.0124 µM
COc1ccc(C2=NN(C(C)C)C(=O)C3CC=CCC23)cc1-c1ccc(C(=O)NCC(N)=O)cc1 (stereo not drawn) [compound 1]	–	–	–	–	IC50 [5]: 6.3 µM; Ki [6]: 0.1 µM; selectivity for TbrPDEB1 over hPDE4 ([7]; from Ki values): more than 10 fold; Ki ([7]; hPDE4B1 in Figure 1, read-out: hPDE4 Ki): 1.9 µM; CC50 [8]: 35 µM
Cc1ccc(C(=O)Nc2ccc(S(=O)(=O)O)c3cc(S(=O)(=O)O)cc(S(=O)(=O)O)c23)cc1NC(=O)c1cccc(NC(=O)Nc2cccc(C(=O)Nc3cc(C(=O)Nc4ccc(S(=O)(=O)O)c5cc(S(=O)(=O)O)cc(S(=O)(=O)O)c45)ccc3C)c2)c1 [suramin, reference compound]	–	–	0.04 ± 0.02	–	–

Source: publication PMC7859335, “Discovery of Diaryl Ether Substituted Tetrahydrophthalazinones as TbrPDEB1 Inhibitors Following Structure-Based Virtual Screening” (Frontiers in Chemistry, 2021)
